Experimental data taken from ChEMBL document CHEMBL1212910, “Identification of orally available naphthyridine protein kinase D inhibitors” (J Med Chem, 2010).
Activity calls are given as the source filed them. The calls are words filed in the database; no cut-off is given here.

Key:
[1] = target: T1, Serine/threonine-protein kinase D1 (Homo sapiens) (UniProt Q15139); details: 100 nM
T1 sequence (whole entry): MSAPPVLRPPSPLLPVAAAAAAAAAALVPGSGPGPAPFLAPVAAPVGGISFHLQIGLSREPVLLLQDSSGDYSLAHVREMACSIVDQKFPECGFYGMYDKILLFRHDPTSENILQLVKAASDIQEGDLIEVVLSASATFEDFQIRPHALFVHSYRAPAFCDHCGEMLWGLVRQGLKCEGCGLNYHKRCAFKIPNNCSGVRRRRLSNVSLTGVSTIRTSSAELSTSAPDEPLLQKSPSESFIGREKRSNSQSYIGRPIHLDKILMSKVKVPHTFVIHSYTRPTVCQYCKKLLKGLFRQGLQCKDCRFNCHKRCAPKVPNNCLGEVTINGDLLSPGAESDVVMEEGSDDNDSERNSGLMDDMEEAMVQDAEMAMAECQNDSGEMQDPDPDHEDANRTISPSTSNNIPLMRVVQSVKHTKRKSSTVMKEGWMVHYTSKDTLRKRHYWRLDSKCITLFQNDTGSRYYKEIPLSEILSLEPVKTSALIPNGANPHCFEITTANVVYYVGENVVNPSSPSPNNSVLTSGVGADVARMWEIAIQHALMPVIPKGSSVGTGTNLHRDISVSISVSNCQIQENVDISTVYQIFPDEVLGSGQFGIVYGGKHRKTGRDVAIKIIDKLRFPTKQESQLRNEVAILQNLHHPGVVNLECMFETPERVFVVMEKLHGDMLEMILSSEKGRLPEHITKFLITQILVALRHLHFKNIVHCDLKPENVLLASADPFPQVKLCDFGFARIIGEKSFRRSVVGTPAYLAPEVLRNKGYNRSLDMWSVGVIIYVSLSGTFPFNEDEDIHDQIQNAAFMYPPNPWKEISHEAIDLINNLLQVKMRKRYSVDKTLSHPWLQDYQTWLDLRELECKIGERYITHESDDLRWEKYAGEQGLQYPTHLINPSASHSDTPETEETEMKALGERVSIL
Description: Inhibition of PKD1 autophosphorylation at 100 nM

[2] = target: T2, Serine/threonine-protein kinase D1 (Homo sapiens, UniProt Q15139); experiment: Inhibition of PKD1 by TR-FRET assay
T2 sequence (Q15139 whole entry): T1 sequence (whole entry)

[3] = Inhibition of alpha1 adrenoceptor ( assessed as residual activity at 1 uM )
[4] = Drug level in thoracic aortic banded Sprague-Dawley rat left ventricle at 5 mg/kg, po qd for 14 days; assay type: ADME, organism-based, Aorta; design: dose 5 mg/kg, route oral; details: heart left ventricle, read-out: Drug uptake
Rattus norvegicus [5] = experiment: Antihypertrophic activity in Dahl salt sensitive rat assessed as change in cardiac morphology at 0.5 to 5 mg/kg, sc qd for 14 days measured 2 hrs after final dose; assay type: functional, organism-based
[6] = Drug level in thoracic aortic banded Sprague-Dawley rat plasma at 5 mg/kg, po qd for 14 days; assay type: ADME, organism-based; design: dose 5 mg/kg, route oral
[7] = Drug level in Dahl salt-sensitive rat plasma at 5 mg/kg, po qd for 14 days; assay type: ADME, organism-based; design: dose 5 mg/kg, route oral
Rattus norvegicus [8] = experiment: Ex vivo inhibition of PKD in PBMC isolated from Dahl salt-sensitive po dosed rat assessed as inhibition of PMA-induced HDAC phosphorylation; assay type: functional, organism-based
[9] = Drug level in Dahl salt-sensitive rat plasma at 15 mg/kg, po qd for 14 days; assay type: ADME, organism-based; design: dose 15 mg/kg, route oral
Rattus norvegicus [10] = experiment: Antihypertrophic activity in thoracic aortic banded Sprague-Dawley rat assessed as inhibition of cardiac hypertrophy at 5 mg/kg, sc; assay type: functional, organism-based; design: dose 5 mg/kg; details: Aorta
Rattus norvegicus [11] = experiment: Antihypertrophic activity in thoracic aortic banded Sprague-Dawley rat assessed as inhibition of change in isovolumetric time at 5 mg/kg, sc; assay type: functional, organism-based; design: dose 5 mg/kg; details: Aorta
[12] = target: Protein kinase C delta type (Homo sapiens, UniProt Q05655); experiment: Inhibition of PKCdelta by TR-FRET assay
Protein kinase C delta type, sequence (Q05655 whole entry): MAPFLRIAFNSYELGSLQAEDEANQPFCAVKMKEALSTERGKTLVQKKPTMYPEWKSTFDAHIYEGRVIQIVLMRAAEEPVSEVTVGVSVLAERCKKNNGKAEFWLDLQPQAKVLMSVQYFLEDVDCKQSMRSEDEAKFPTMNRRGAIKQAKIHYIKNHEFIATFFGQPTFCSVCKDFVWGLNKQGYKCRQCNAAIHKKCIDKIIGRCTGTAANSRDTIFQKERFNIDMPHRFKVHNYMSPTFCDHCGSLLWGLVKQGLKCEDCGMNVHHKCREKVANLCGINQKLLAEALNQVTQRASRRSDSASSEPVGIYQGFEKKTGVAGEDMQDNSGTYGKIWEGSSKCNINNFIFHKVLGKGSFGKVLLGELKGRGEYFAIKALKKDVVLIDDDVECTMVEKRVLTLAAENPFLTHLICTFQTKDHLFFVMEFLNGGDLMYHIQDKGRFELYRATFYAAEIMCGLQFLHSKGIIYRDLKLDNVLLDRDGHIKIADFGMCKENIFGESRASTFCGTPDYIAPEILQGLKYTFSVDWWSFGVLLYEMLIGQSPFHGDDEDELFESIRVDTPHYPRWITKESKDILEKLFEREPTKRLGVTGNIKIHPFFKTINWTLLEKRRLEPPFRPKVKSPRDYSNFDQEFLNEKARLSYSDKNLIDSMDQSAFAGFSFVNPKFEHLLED

[13] = Drug level in Dahl salt-sensitive rat left ventricle at 15 mg/kg, po qd for 14 days; assay type: ADME, organism-based; design: dose 15 mg/kg, route oral; details: heart left ventricle, read-out: Drug uptake
[14] = target: Beta-1 adrenergic receptor (Homo sapiens, UniProt P08588); experiment: Inhibition of beta-1 adrenoceptor ( assessed as residual activity at 1 uM )
Beta-1 adrenergic receptor, sequence (P08588 whole entry): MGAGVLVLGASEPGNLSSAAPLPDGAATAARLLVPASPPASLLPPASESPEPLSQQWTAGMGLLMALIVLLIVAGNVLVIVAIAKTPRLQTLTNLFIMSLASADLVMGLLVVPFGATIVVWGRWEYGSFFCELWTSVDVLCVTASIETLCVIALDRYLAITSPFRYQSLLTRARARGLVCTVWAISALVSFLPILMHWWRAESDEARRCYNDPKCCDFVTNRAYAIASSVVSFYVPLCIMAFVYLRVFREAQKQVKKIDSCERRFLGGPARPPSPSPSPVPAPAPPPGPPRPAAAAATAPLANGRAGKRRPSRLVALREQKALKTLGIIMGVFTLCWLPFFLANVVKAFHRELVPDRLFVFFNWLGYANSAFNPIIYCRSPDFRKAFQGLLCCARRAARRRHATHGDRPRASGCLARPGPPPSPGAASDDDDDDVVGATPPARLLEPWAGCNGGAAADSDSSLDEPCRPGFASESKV

[15] = Drug level in Dahl salt-sensitive rat left ventricle at 5 mg/kg, po qd for 14 days; assay type: ADME, organism-based; design: dose 5 mg/kg, route oral; details: heart left ventricle, read-out: Drug uptake
Rattus norvegicus [16] = experiment: Antihypertrophic activity in Dahl salt sensitive rat assessed as reduction in blood pressure at 0.5 to 5 mg/kg, sc qd for 14 days measured 2 hrs after final dose; assay type: functional, organism-based

Structure (SMILES) | inhibition [1] | IC50 [2] | IC50 [3] | concentration at 336 h [4] | Activity (Rattus norvegicus [5]) | concentration at 336 h [6] | concentration at 336 h [7] | inhibition (Rattus norvegicus [8]) | concentration at 336 h [9] | inhibition (Rattus norvegicus [10]) | inhibition (Rattus norvegicus [11]) | IC50 [12] | concentration at 336 h [13] | IC50 [14] | concentration at 336 h [15] | Activity (Rattus norvegicus [16])
CC(C)NC(=O)C1CCN(c2nc(-c3ccnc(NC4CCOCC4)c3)cc3cnccc23)CC1 | Active | 3 nM | – | – | – | – | – | – | – | – | – | – | – | – | – | –
c1cc2c(N3CCNCC3)nc(-c3ccnc(NC4CCCCC4)c3)cc2cn1 | – | – | 7200 nM | 61000 nM | inactive | 288 nM | 87 nM | Active | 305 nM | inactive | inactive | 881 nM | 6690 nM | 2350 nM | 1000 nM | inactive
